The text below walks through data of patent US7368424B2, “Acylated nonadepsipeptides” (AiCuris GmbH & Co. KG, priority 2003, dated 2008).

≈ marks a conversion by molar mass, not a printed value. *1 amine or outer side, *2 acyl side, *3 side chain or, on linkers, in order; H or OH if unused. Where a SMILES comes first, the peptide text is derived from it. Bridges are numbered along the chain shown (N, C = ends). [ ]: non-standard residue; d: D form. The star is where a group is joined. Phe(3R-OH) = O=C([C@@H](N[*:1])[C@H](O[*:3])c1ccccc1)[*:2]; Phe(4-NO2) = N[C@@H](Cc1ccc([N+](=O)[O-])cc1)C(=O)O; Asn(3S-OH) = NC(=O)[C@@H](O)[C@H](N)C(=O)O; Leu(3R-OH) = CC(C)[C@@H](O)[C@H](N)C(=O)O; dAla(TMS) = C[Si](C)(C)C[C@@H](N)C(=O)O; d(tBuAla) = CC(C)(C)C[C@@H](N)C(=O)O; tBuAla = CC(C)(C)C[C@H](N)C(=O)O; 3Pal = N[C@@H](Cc1cccnc1)C(=O)O; aThr = C[C@H](O)[C@H](N)C(=O)O; dOrn = NCCC[C@@H](N)C(=O)O; Ac6c = NC1(C(=O)O)CCCCC1; Cbz = O=C(OCc1ccccc1)*

One assay deals with E. faecalis ICB 27159. It counts as cell-based, Enterococcus faecalis. The note with it: ICB 27159. Here is the method:
(§1) Determination of the Minimum Inhibitory Concentration (MIC):
(§2) The MIC is determined in the liquid dilution test in accordance with the NCCLS guidelines. Overnight cultures of Staphylococcus aureus 133, Enterococcus faecalis 27159, E. faecium 4147 and Streptococcus pneumoniae G9a are incubated with the desired test substances in a 1:2 dilution series. The MIC determination is carried out with a cell count of 10^5 microbes per ml in Isosensitest medium (Difco, Irvine/USA), with the exception of S. pneumoniae which is tested in BHI broth (Difco, Irvine/USA) with 10% bovine serum with a cell count of 10^6 microbes per ml. The cultures are incubated at 37° C. for 18-24 hours, S. pneumoniae in the presence of 10% CO2.
(§3) The MIC is defined as the lowest concentration of each substance at which visible bacterial growth no longer occurs. The MIC values are reported in μg/ml.

The next assay concerns E. faecium L4001. The assay is classed as cell-based, Enterococcus faecium. As to conditions: L4001.
Assay [1] has as its system Staphylococcus aureus 133. It counts as cell-based. As to conditions: 133. Here is the method:
as §1, §2, §3

The test system of assay [2] is Streptococcus pneumoniae G9a. The assay is classed as cell-based. As to conditions: G9a. Here is the method:
as §1, §2, §3

For `CC[C@H](C)[C@@H]1NC(=O)[C@@H](CCCNC(=N)N)NC(=O)[C@H](CC(C)C)NC(=O)[C@H]([C@H](O)C(C)C)NC(=O)[C@@H](NC(=O)[C@H](CC(C)C)NC(=O)[C@@H](N)Cc2ccccc2)[C@@H](c2ccccc2)OC(=O)[C@H](CO)NC(=O)[C@H]([C@H](O)C(N)=O)NC(=O)CNC(=O)[C@H]([C@H](C)O)NC1=O` [Example 48, L-Phenylalanyl-de(1-D-leucyl)lysobactin bistrifluoroacetate] (H-FL[Phe(3R-OH)][Leu(3R-OH)]L[dR]I[aThr]G[Asn(3S-OH)]S; ester 3-C), in the assay with E. faecalis ICB 27159, the “MIC E. faecalis ICB 27159” value came to 0.5 µg/mL (≈ 0.382 µM). In addition, the “MIC E. faecium L4001” value in the assay on E. faecium L4001 came to 0.25 µg/mL (≈ 0.191 µM). Further, in assay [1], the “MIC S. aureus 133” value turned out to be 0.125 µg/mL (≈ 0.0954 µM). In addition, the “MIC S. pneumoniae” value in assay [2] is 0.125 µg/mL (≈ 0.0954 µM).

Consider `CC[C@H](C)[C@@H]1NC(=O)[C@@H](CCCNC(=N)N)NC(=O)[C@H](CC(C)C)NC(=O)[C@H]([C@H](O)C(C)C)NC(=O)[C@@H](NC(=O)[C@H](CC(C)C)NC(=O)C2(N)CCCCC2)[C@@H](c2ccccc2)OC(=O)[C@H](CO)NC(=O)[C@H]([C@H](O)C(N)=O)NC(=O)CNC(=O)[C@H]([C@H](C)O)NC1=O` [Example 57, N-(1-Aminocyclohexyl)carbonyl-de(1-D-leucyl)lysobactin bistrifluoroacetate] (H-[Ac6c]L[Phe(3R-OH)][Leu(3R-OH)]L[dR]I[aThr]G[Asn(3S-OH)]S; ester 3-C), for which the “MIC E. faecalis ICB 27159” value against E. faecalis ICB 27159 came to 1 µg/mL (≈ 0.776 µM). Further, the “MIC E. faecium L4001” value against E. faecium L4001 came to 1 µg/mL (≈ 0.776 µM). Also, in assay [1], the “MIC S. aureus 133” value came out at 0.5 µg/mL (≈ 0.388 µM). Besides, the “MIC S. pneumoniae” value in assay [2] is 0.25 µg/mL (≈ 0.194 µM).

Regarding `CC[C@H](C)[C@@H]1NC(=O)[C@@H](CCCNC(=N)N)NC(=O)[C@H](CC(C)C)NC(=O)[C@H]([C@H](O)C(C)C)NC(=O)[C@@H](NC(=O)[C@H](CC(C)C)NC(=O)[C@H](N)C[Si](C)(C)C)[C@@H](c2ccccc2)OC(=O)[C@H](CO)NC(=O)[C@H]([C@H](O)C(N)=O)NC(=O)CNC(=O)[C@H]([C@H](C)O)NC1=O` [Example 59, 3-(Trimethylsilyl-D-alanyl-de(1-D-leucyl)lysobactin bistrifluoroacetate] (H-[dAla(TMS)]L[Phe(3R-OH)][Leu(3R-OH)]L[dR]I[aThr]G[Asn(3S-OH)]S; ester 3-C), the “MIC E. faecalis ICB 27159” value with E. faecalis ICB 27159 turned out to be 0.25 µg/mL (≈ 0.191 µM). Besides, the “MIC E. faecium L4001” value against E. faecium L4001 is 0.25 µg/mL (≈ 0.191 µM). The “MIC S. aureus 133” value in assay [1] turned out to be 0.125 µg/mL (≈ 0.0957 µM). Further, in assay [2], the “MIC S. pneumoniae” value was <0.063 µg/mL.

For the compound `CC[C@H](C)[C@@H]1NC(=O)[C@@H](CCCNC(=N)N)NC(=O)[C@H](CC(C)C)NC(=O)[C@H]([C@H](O)C(C)C)NC(=O)[C@@H](NC(=O)[C@H](CC(C)C)NC(=O)[C@H](N)CCCNC(=O)OCc2ccccc2)[C@@H](c2ccccc2)OC(=O)[C@H](CO)NC(=O)[C@H]([C@H](O)C(N)=O)NC(=O)CNC(=O)[C@H]([C@H](C)O)NC1=O` [Example 62, N^6-[(Benzyloxy)carbonyl]-D-ornithyl-de(1-D-leucyl)lysobactin bistrifluoroacetate] (H-[dOrn](Cbz)L[Phe(3R-OH)][Leu(3R-OH)]L[dR]I[aThr]G[Asn(3S-OH)]S; ester 3-C), in the assay with E. faecalis ICB 27159, the “MIC E. faecalis ICB 27159” value came out at 1 µg/mL (≈ 0.708 µM). The “MIC E. faecium L4001” value against E. faecium L4001 came out at 0.5 µg/mL (≈ 0.354 µM). In assay [1], the “MIC S. aureus 133” value came out at 0.25 µg/mL (≈ 0.177 µM). The “MIC S. pneumoniae” value in assay [2] came out at 0.5 µg/mL (≈ 0.354 µM).

On to `CC[C@H](C)[C@@H]1NC(=O)[C@@H](CCCNC(=N)N)NC(=O)[C@H](CC(C)C)NC(=O)[C@H]([C@H](O)C(C)C)NC(=O)[C@@H](NC(=O)[C@H](CC(C)(C)C)NC(=O)[C@H](N)CC(C)(C)C)[C@@H](c2ccccc2)OC(=O)[C@H](CO)NC(=O)[C@H]([C@H](O)C(N)=O)NC(=O)CNC(=O)[C@H]([C@H](C)O)NC1=O.O=C(O)C(F)(F)F.O=C(O)C(F)(F)F` [Example 68] (H-[d(tBuAla)][tBuAla][Phe(3R-OH)][Leu(3R-OH)]L[dR]I[aThr]G[Asn(3S-OH)]S; ester 3-C), for which the “MIC E. faecalis ICB 27159” value in the assay on E. faecalis ICB 27159 worked out at 0.5 µg/mL. In addition, in the assay with E. faecium L4001, the “MIC E. faecium L4001” value was 0.5 µg/mL. Moreover, the “MIC S. aureus 133” value in assay [1] was found to be 0.125 µg/mL. Also, the “MIC S. pneumoniae” value in assay [2] worked out at 0.031 µg/mL.

For the compound `CC[C@H](C)[C@@H]1NC(=O)[C@@H](CCCNC(=N)N)NC(=O)[C@H](CC(C)C)NC(=O)[C@H]([C@H](O)C(C)C)NC(=O)[C@@H](NC(=O)[C@H](Cc2cccnc2)NC(=O)[C@H](N)CC(C)(C)C)[C@@H](c2ccccc2)OC(=O)[C@H](CO)NC(=O)[C@H]([C@H](O)C(N)=O)NC(=O)CNC(=O)[C@H]([C@H](C)O)NC1=O` [Example 69, 3-tert-Butyl-D-alanyl-3-(3-pyridyl)-L-alanyl-de(1-D-leucyl-2-L-leucyl)lysobactin tristrifluoroacetate] (H-[d(tBuAla)][3Pal][Phe(3R-OH)][Leu(3R-OH)]L[dR]I[aThr]G[Asn(3S-OH)]S; ester 3-C), the “MIC E. faecalis ICB 27159” value in the assay with E. faecalis ICB 27159 came out at 1 µg/mL (≈ 0.754 µM). For the same compound, in the assay with E. faecium L4001, the “MIC E. faecium L4001” value was 1 µg/mL (≈ 0.754 µM). In addition, the “MIC S. aureus 133” value in assay [1] is 0.5 µg/mL (≈ 0.377 µM). In addition, the “MIC S. pneumoniae” value in assay [2] stood at 0.5 µg/mL (≈ 0.377 µM).

For the compound `CC[C@H](C)[C@@H]1NC(=O)[C@@H](CCCNC(=N)N)NC(=O)[C@H](CC(C)C)NC(=O)[C@H]([C@H](O)C(C)C)NC(=O)[C@@H](NC(=O)[C@H](Cc2ccccc2)NC(=O)[C@H](N)CC(C)C)[C@@H](c2ccccc2)OC(=O)[C@H](CO)NC(=O)[C@H]([C@H](O)C(N)=O)NC(=O)CNC(=O)[C@H]([C@H](C)O)NC1=O.O=C(O)C(F)(F)F.O=C(O)C(F)(F)F` [Example 74, D-Leucyl-L-phenylalanyl-de(1-D-leucyl-2-L-leucyl)lysobactin bistrifluoroacetate] (H-[dL]F[Phe(3R-OH)][Leu(3R-OH)]L[dR]I[aThr]G[Asn(3S-OH)]S; ester 3-C), the “MIC E. faecalis ICB 27159” value in the assay with E. faecalis ICB 27159 stood at 1 µg/mL. In addition, the “MIC E. faecium L4001” value with E. faecium L4001 was found to be 0.5 µg/mL. In assay [1], the “MIC S. aureus 133” value worked out at 0.125 µg/mL. Also, the “MIC S. pneumoniae” value in assay [2] came to 0.063 µg/mL.

In the case of `CC[C@H](C)[C@@H]1NC(=O)[C@@H](CCCNC(=N)N)NC(=O)[C@H](CC(C)C)NC(=O)[C@H]([C@H](O)C(C)C)NC(=O)[C@@H](NC(=O)[C@H](Cc2ccc([N+](=O)[O-])cc2)NC(=O)[C@H](N)Cc2ccccc2)[C@@H](c2ccccc2)OC(=O)[C@H](CO)NC(=O)[C@H]([C@H](O)C(N)=O)NC(=O)CNC(=O)[C@H]([C@H](C)O)NC1=O.O=C(O)C(F)(F)F.O=C(O)C(F)(F)F` [Example 81, D-Phenylalanyl-4-nitro-L-phenylalanyl-de(1-D-leucyl-2-L-leucyl)lysobactine bistrifluoroacetate] (H-[dF][Phe(4-NO2)][Phe(3R-OH)][Leu(3R-OH)]L[dR]I[aThr]G[Asn(3S-OH)]S; ester 3-C), in the assay on E. faecalis ICB 27159, the “MIC E. faecalis ICB 27159” value turned out to be 0.25 µg/mL. For the same compound, the “MIC E. faecium L4001” value against E. faecium L4001 came to 0.25 µg/mL. Also, the “MIC S. aureus 133” value in assay [1] turned out to be 0.5 µg/mL. The “MIC S. pneumoniae” value in assay [2] came out at 0.25 µg/mL.
